The structures appear in SMILES notation.

The target in one test is adenosine A2B receptor (Homo sapiens (Human), UniProt P29275). In words: Adenosine receptor activity assay (Table 1), A2B activity. As to conditions: for IC50: read-out: Ave A2B cAMP IC50. Format: biochemical.
A further test deals with adenosine A2A receptor (Homo sapiens (Human), UniProt P29274). In words: Adenosine receptor activity assay (Table 1), A2A activity. Format: biochemical. As to conditions: read-out: Ave A2A cAMP IC50.
Where [1] appears, read: A2A activity to the A2B activity, A2A/A2B.
Setting [2] is: A2A activity to A2B activity (A2A/A2B).

adenosine A2B receptor, sequence (P29275 whole entry): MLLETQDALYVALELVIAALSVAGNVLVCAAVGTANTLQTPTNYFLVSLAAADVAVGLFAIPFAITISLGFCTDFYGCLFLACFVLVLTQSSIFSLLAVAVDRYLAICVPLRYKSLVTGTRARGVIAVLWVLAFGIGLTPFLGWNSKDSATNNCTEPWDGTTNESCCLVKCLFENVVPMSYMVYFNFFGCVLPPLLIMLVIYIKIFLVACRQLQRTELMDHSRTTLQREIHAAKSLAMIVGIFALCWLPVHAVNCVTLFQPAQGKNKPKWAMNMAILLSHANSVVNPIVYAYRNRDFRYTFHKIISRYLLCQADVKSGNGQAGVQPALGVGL
adenosine A2A receptor, sequence (P29274 whole entry): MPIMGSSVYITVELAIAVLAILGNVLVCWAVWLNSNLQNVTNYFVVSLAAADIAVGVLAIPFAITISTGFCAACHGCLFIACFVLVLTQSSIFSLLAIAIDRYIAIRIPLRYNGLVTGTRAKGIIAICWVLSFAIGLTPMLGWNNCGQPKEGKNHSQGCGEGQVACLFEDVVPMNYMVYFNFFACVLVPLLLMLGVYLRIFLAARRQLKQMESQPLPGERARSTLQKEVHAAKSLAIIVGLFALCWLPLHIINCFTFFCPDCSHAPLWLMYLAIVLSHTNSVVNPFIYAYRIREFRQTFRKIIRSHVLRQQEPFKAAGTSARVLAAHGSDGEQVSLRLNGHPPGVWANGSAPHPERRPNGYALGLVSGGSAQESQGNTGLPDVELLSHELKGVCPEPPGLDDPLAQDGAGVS

Turning to `CCNC1CN(C(=O)c2nc(N[C@@H](C)c3cncc(F)c3)nc3cc(C)sc23)C1` [Example Z574, (S)-(3-(Ethylamino)azetidin-1-yl)(2-((1-(5-fluoropyridin-3-yl)ethyl)amino)-6-methylthieno[3,2-d]pyrimidin-4-yl)methanone], the Ratio on adenosine A2B receptor (setting [1]) stood at 58.55. The IC50 on adenosine A2B receptor was 10 to 50 nM; on adenosine A2A receptor, more than 500 nM.
On to `CN(C(=O)c1nc(NCc2cncc(F)c2)nc2ccsc12)C1CCC(C)(C)C1` (centres unmarked) [Example Z22, N-(3,3-Dimethylcyclopentyl)-2-(((5-fluoropyridin-3-yl)methyl)amino)-N-methylthieno[3,2-d]pyrimidine-4-carboxamide], for which, on adenosine A2B receptor (setting [2]), the Ratio is on record as 7.49. The IC50 on adenosine A2B receptor and at adenosine A2A receptor was more than 500 nM in each case.
With `O=C(NC1CCC1)c1nc(NCc2cnccn2)nc2ccsc12` [Example Z154, N-Cyclobutyl-2-((pyrazin-2-ylmethyl)amino)thieno[3,2-d]pyrimidine-4-carboxamide], the Ratio on adenosine A2B receptor (setting [2]) is 4.52. The IC50 lay in the range of 50 to 100 nM on adenosine A2B receptor and 100 to 500 nM at adenosine A2A receptor.
Regarding `C[C@H](Nc1nc(C(=O)NCCNC(=O)C(C)(C)C)c2sccc2n1)c1cncc(F)c1` [Example Z537, (S)-2-((1-(5-Fluoropyridin-3-yl)ethyl)amino)-N-(2-pivalamidoethyl)thieno[3,2-d]pyrimidine-4-carboxamide], the Ratio at adenosine A2B receptor (setting [1]) was found to be 0.87. The IC50 at adenosine A2B receptor and on adenosine A2A receptor was 100 to 500 nM throughout.
As to `CC1CCN1C(=O)c1nc(N[C@@H](C)c2ccccn2)nc2ccsc12` (stereo partly drawn) [Example Z133, (2-Methylazetidin-1-yl)(2-(((S)-1-(pyridin-2-yl)ethyl)amino)thieno[3,2-d]pyrimidin-4-yl)methanone], at adenosine A2B receptor (setting [2]), the Ratio is reported as 3.85. Also, the IC50 at adenosine A2B receptor and at adenosine A2A receptor was 10 to 50 nM in each case.
As to `O=C(c1nc(NCc2cc(F)cc(F)c2)nc2ccsc12)N1CCC1` [Example Z168, Azetidin-1-yl(2-((3,5-difluorobenzyl)amino)thieno[3,2-d]pyrimidin-4-yl)methanone], on adenosine A2B receptor (setting [2]), the Ratio stood at 36.14. The IC50 on adenosine A2B receptor lay within 10 to 50 nM; on adenosine A2A receptor, 100 to 500 nM.
In the case of `C[C@H](Nc1nc(C(=O)N2CCN(C(=O)OC(C)(C)C)C2)c2sccc2n1)c1cccnc1` [Example Z140, tert-Butyl (S)-3-(2-((1-(pyridin-3-yl)ethyl)amino)thieno[3,2-d]pyrimidine-4-carbonyl)imidazolidine-1-carboxylate], at adenosine A2B receptor (setting [2]), the Ratio is given as 1.36. Besides, the IC50 on adenosine A2B receptor and on adenosine A2A receptor was more than 500 nM in each case.
Consider `Cc1cc2nc(N[C@@H](C)c3cccnc3)nc(C(=O)N3CC(CN(C)C)C3)c2s1` [Example Z516, (S)-(3-((Dimethylamino)methyl)azetidin-1-yl)(6-methyl-2-((1-(pyridin-3-yl)ethyl)amino)thieno[3,2-d]pyrimidin-4-yl)methanone], for which the Ratio on adenosine A2B receptor (setting [1]) is given as 8.08. Moreover, the half-maximal inhibitory concentration (IC50) at adenosine A2B receptor and on adenosine A2A receptor was more than 500 nM throughout.
Turning to `COc1ccc(CNc2nc(C(=O)N3CCCC3)c3sccc3n2)cc1OC` [Example Z38, (2-((3,4-Dimethoxybenzyl)amino)thieno[3,2-d]pyrimidin-4-yl)(pyrrolidin-1-yl)methanone], the Ratio at adenosine A2B receptor (setting [2]) is reported as 1.00. The IC50 on adenosine A2B receptor and at adenosine A2A receptor was more than 500 nM each time.
Regarding `CCC(Nc1nc(C(=O)N2CC[C@@H](OC)C2)c2sccc2n1)c1cccnc1` (stereo partly drawn) [Example Z26, ((R)-3-Methoxypyrrolidin-1-yl)(2-((1-(pyridin-3-yl)propyl)amino)thieno[3,2-d]pyrimidin-4-yl)methanone], the Ratio at adenosine A2B receptor (setting [2]) is listed as 2.58. Besides, the IC50 at adenosine A2B receptor lay in the range of 10 to 50 nM; at adenosine A2A receptor it was 50 to 100 nM.
For `O=C(c1nc(NCc2ccc(C(F)(F)F)nc2)nc2ccsc12)N1CC[C@H](O)C1` [Example Z75, (S)-(3-Hydroxypyrrolidin-1-yl)(2-(((6-(trifluoromethyl)pyridin-3-yl)methyl)amino)thieno[3,2-d]pyrimidin-4-yl)methanone], in that order: 1.00, more than 500 nM and more than 500 nM.
For `C[C@H](Nc1nc(C(=O)N2CC[C@H](N)C2)c2sccc2n1)c1cncc(F)c1` [Example Z362, ((S)-3-Aminopyrrolidin-1-yl)(2-(((S)-1-(5-fluoropyridin-3-yl)ethyl)amino)thieno[3,2-d]pyrimidin-4-yl)methanone], in that order: 95.57, 10 to 50 nM and more than 500 nM.
For `CO[C@H]1CCN(C(=O)c2nc(N[C@@H](C)c3cccnc3)nc3cc(C)sc23)C1` [Example Z350, ((S)-3-Methoxypyrrolidin-1-yl)(6-methyl-2-(((S)-1-(pyridin-3-yl)ethyl)amino)thieno[3,2-d]pyrimidin-4-yl)methanone], in that order: 4.80, 10 to 50 nM and 100 to 500 nM.
In the case of `C[C@H](Nc1nc(C(=O)NCCc2ccc(S(C)(=O)=O)cc2)c2sccc2n1)c1cncc(F)c1` [Example Z455, (S)-2-((1-(5-Fluoropyridin-3-yl)ethyl)amino)-N-(4-(methylsulfonyl)phenethyl)thieno[3,2-d]pyrimidine-4-carboxamide], the Ratio on adenosine A2B receptor (setting [1]) is given as 3.91. The IC50 is 100 to 500 nM at adenosine A2B receptor and more than 500 nM at adenosine A2A receptor.
In the case of `COc1cncc(CNc2nc(C(=O)N3CCC3)c3sccc3n2)c1` [Example Z116, Azetidin-1-yl(2-(((5-methoxypyridin-3-yl)methyl)amino)thieno[3,2-d]pyrimidin-4-yl)methanone], at adenosine A2B receptor (setting [2]), the Ratio was 4.17. Moreover, the results for the IC50 at adenosine A2B receptor and on adenosine A2A receptor were 100 to 500 nM and more than 500 nM, respectively.
With `COCC(Nc1nc(C(=O)NC2CC2)c2sccc2n1)c1cccnc1` (centres unmarked) [Example Z202, N-Cyclopropyl-2-((2-methoxy-1-(pyridin-3-yl)ethyl)amino)thieno[3,2-d]pyrimidine-4-carboxamide], the Ratio at adenosine A2B receptor (setting [2]) stood at 3.91. The IC50 is 10 to 50 nM at adenosine A2B receptor and 50 to 100 nM at adenosine A2A receptor.
On to `C[C@H](Nc1nc(C(=O)N2CC(C)(O)C2)c2sccc2n1)c1ccccn1` [Example Z101, (S)-(3-Hydroxy-3-methylazetidin-1-yl)(2-((1-(pyridin-2-yl)ethyl)amino)thieno[3,2-d]pyrimidin-4-yl)methanone], for which the figures for the IC50 at adenosine A2B receptor and on adenosine A2A receptor were 10 to 50 nM and 100 to 500 nM, respectively.
As to `CC(C)(C)OC(=O)N[C@H]1CCN(C(=O)c2nc(NCc3cncc(F)c3)nc3ccsc23)C1` [Example Z245, tert-Butyl (S)-(1-(2-(((5-fluoropyridin-3-yl)methyl)amino)thieno[3,2-d]pyrimidine-4-carbonyl)pyrrolidin-3-yl)carbamate], the Ratio on adenosine A2B receptor (setting [2]) was found to be 1.87. In addition, the values for the IC50 on adenosine A2B receptor and on adenosine A2A receptor were 50 to 100 nM and 100 to 500 nM, respectively.
`Cc1cc2nc(N[C@@H](C)c3cncc(F)c3)nc(C(=O)N3CC(N(C)C(=O)OC(C)(C)C)C3)c2s1` [Example Z484, tert-Butyl (S)-(1-(2-((1-(5-fluoropyridin-3-yl)ethyl)amino)-6-methylthieno[3,2-d]pyrimidine-4-carbonyl)azetidin-3-yl)(methyl)carbamate]: at adenosine A2B receptor (setting [1]), the Ratio amounted to 4.16. The 50% inhibitory concentration (IC50) on adenosine A2B receptor lay in the range of 10 to 50 nM; at adenosine A2A receptor, 100 to 500 nM.
For `C[C@H](Nc1nc(C(=O)N2CC[C@@H](O)C2)c2sccc2n1)c1ccnc(F)c1` [Example Z408, (2-(((S)-1-(2-Fluoropyridin-4-yl)ethyl)amino)thieno[3,2-d]pyrimidin-4-yl)((R)-3-hydroxypyrrolidin-1-yl)methanone], in that order: 6.69, 50 to 100 nM and more than 500 nM.
With `C[C@H](Nc1nc(C(=O)N2CC(CN(C)C(=O)OC(C)(C)C)C2)c2sccc2n1)c1cncc(F)c1` [Example Z525, tert-Butyl (S)-((1-(2-((1-(5-Fluoropyridin-3-yl)ethyl)amino)thieno[3,2-d]pyrimidine-4-carbonyl)azetidin-3-yl)methyl)(methyl)carbamate], on adenosine A2B receptor (setting [1]), the Ratio was found to be 3.05. Besides, the IC50 on adenosine A2B receptor lay in the range of 50 to 100 nM; on adenosine A2A receptor it was 100 to 500 nM.
As to `C[C@H](Nc1nc(C(=O)NCCc2ccc(C(=O)O)cc2)c2sccc2n1)c1cncc(F)c1` [Example Z452, (S)-4-(2-(2-((1-(5-Fluoropyridin-3-yl)ethyl)amino)thieno[3,2-d]pyrimidine-4-carboxamido)ethyl)benzoic acid], the Ratio at adenosine A2B receptor (setting [1]) amounted to 19.85. Also, the concentration for half-maximal inhibition (IC50) on adenosine A2B receptor is 100 to 500 nM; on adenosine A2A receptor, more than 500 nM.
On to `O=C(c1nc(NCc2cncc(C(F)(F)F)c2)nc2ccsc12)N1CC[C@H](O)C1` [Example Z264, (S)-(3-Hydroxypyrrolidin-1-yl)(2-(((5-(trifluoromethyl)pyridin-3-yl)methyl)amino)thieno[3,2-d]pyrimidin-4-yl)methanone], for which the Ratio on adenosine A2B receptor (setting [2]) amounted to 13.34. Besides, the IC50 on adenosine A2B receptor and at adenosine A2A receptor was more than 500 nM each time.
Consider `C[C@H](Nc1nc(C(=O)Nc2ccccc2)c2sccc2n1)c1ccccn1` [Example Z303, (S)—N-Phenyl-2-((1-(pyridin-2-yl)ethyl)amino)thieno[3,2-d]pyrimidine-4-carboxamide], for which the Ratio at adenosine A2B receptor (setting [2]) came out at 3.08. In addition, the IC50 is 50 to 100 nM at adenosine A2B receptor and 100 to 500 nM at adenosine A2A receptor.
For `CCc1cc2nc(N[C@@H](C)c3cccnc3)nc(C(=O)N3CCCC3)c2s1` [Example Z214, (S)-(6-Ethyl-2-((1-(pyridin-3-yl)ethyl)amino)thieno[3,2-d]pyrimidin-4-yl)(pyrrolidin-1-yl)methanone], in that order: 6.84, 100 to 500 nM and more than 500 nM.
For the molecule `N[C@@H]1CCN(C(=O)c2nc(NCc3cncc(F)c3)nc3ccsc23)C1` [Example Z361, (R)-(3-Aminopyrrolidin-1-yl)(2-(((5-fluoropyridin-3-yl)methyl)amino)thieno[3,2-d]pyrimidin-4-yl)methanone], on adenosine A2B receptor (setting [2]), the Ratio stood at 28.33. The IC50 is 100 to 500 nM at adenosine A2B receptor and more than 500 nM on adenosine A2A receptor.

As usually defined, the IC50 is the concentration that gives 50% inhibition.

(Values after patent US11254686B1 (Corvus Pharmaceuticals, Inc., priority 2017, dated 2022).)
